Measured values published in US5876981A, “Transglycosylation reactions employing β-galactosidase” (The Scripps Research Institute, priority 1996, dated 1999).

Assays:
Type in all cases: biochemical, Bacillus circulans
[1] = system: β-galactosidase; assay: initial reaction rate of β-galactosidase-catalyzed reaction (released p-nitrophenol, 420 nm); conditions: 0.05M donor, 0.05M potassium phosphate buffer pH 7.0, room temperature
Experimental: FIG. 2 illustrates the comparison of β-galactosidase-catalyzed reaction using galactopyranose (GalβOpNP) and galactohexodialdose (6-oxo-GalβOpNP). (a): The reaction mixture containing 0.05M of donor, and various concentrations of N-acetyl-D-glucosamine in 0.05M potassium phosphate buffer (pH 7.0) was gently stirred at room temperature in the presence of the enzyme (140 U/mmol of donor) for 24 hours; (b) The mixture (containing the same components as described in (a)) was incubated with shaking for 5-10 min at room temperature. Absorbance was measured at 420 nm; (C) Methyl-β-N-acetyl-D-lactosamine (5) was obtained by reduction with NaBH4 followed by product isolation.
In order to determine which step is kinetically controlled, the effect of acceptors on initial reaction rate, (V)0, was investigated (FIG. 2). […] Addition of water soluble organic solvent would reduce water activity to some extent, but it often causes substrate and/or product inhibition and makes the enzyme unstable (Kieboom et al., Recl. Trav. Chim. Pays-Bas 1988, 107, 347-348). To shift the reaction toward transglycosylation in water, it is therefore necessary to kinetically control the partitioning step to favor the transglycosylation.

[2] = half-life in β-galactosidase-catalyzed hydrolysis (pseudo first order kinetics); conditions: potassium phosphate buffer with β-galactosidase; 5 mM compound, enzyme 140 unit per mmol, 50 mM potassium phosphate buffer pH 7.0, absorbance at 420 nm; read-out: T1/2 toward the β-galactosidase-catalyzed hydrolysis (converted)
Experimental: (§1) The half-lives of compounds 2 and 4 determined from the pseudo first order kinetics of the β-galactosidase-catalyzed hydrolysis were measured as below. 2: A 0.5-mL solution of potassium phosphate buffer (50 mM, pH 7.0) containing 2 (5 mM) and β-galactosidase (140 unit per 1 mmol of 2) was measured continuously in a plastic cell with a 1 cm light path at 420 nm against a control in the absence of the enzyme. 4: A 5-mM solution of 4 and the enzyme (140 U/mmol) in D2 O was poured into an NMR tube, the ratio between the released 3 and remaining 4 was determined periodically by the integration of 6-H of 4 (3.98 ppm) and 6-H of 3 (3.88 ppm).

[3] = system: β-galactosidase; assay: as above; conditions: 5 mM compound, enzyme 140 U/mmol, in D2O, NMR integration of released 3 vs remaining 4
Experimental: as §1

O=[N+]([O-])c1ccc(O[C@@H]2O[C@H](C(O)O)[C@H](O)[C@H](O)[C@H]2O)cc1 [Compound 2, p-nitrophenyl glycoside of D-galactohexodialdose]
substrate quality for β-galactosidase [1]: relatively weak substrate
half-life at 5000 µM [2]: 24 min

6'-oxo-LacNAc [Compound 4]
T1/2 toward the β-galactosidase-catalyzed hydrolysis [3]: 1860 min
